Tests used:
Cytochrome P450 2C9 = Cytochrome P450 2C9 (Homo sapiens, UniProt P11712); experiment: (§1) Binding affinity was measured on Cytochrome P450 2C9
[1] = target: {'v': 'CYP2C9', 'o': 'p', 'q': 'Cytochrome P450 2C9 (single_protein)'} (Homo sapiens, UniProt P11712); experiment: as §1
Sequence of {'v': 'CYP2C9', 'o': 'p', 'q': 'Cytochrome P450 2C9 (single_protein)'} (P11712 whole entry): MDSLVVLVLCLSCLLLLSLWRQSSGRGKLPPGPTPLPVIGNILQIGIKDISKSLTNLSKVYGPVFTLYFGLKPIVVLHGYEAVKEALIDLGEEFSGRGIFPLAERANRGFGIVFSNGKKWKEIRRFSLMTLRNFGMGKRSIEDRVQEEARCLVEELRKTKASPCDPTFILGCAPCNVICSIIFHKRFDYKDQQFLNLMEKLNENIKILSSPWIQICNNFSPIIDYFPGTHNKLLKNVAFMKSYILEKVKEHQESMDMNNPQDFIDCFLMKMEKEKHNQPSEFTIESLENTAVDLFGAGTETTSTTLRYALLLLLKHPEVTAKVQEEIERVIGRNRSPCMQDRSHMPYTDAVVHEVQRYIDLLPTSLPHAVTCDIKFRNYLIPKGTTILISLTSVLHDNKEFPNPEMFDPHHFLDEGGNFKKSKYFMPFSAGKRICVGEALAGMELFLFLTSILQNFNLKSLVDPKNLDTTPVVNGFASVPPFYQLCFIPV

Sequence of Cytochrome P450 2C9 (P11712 whole entry): as above

CC[C@H](c1ccccc1)c1c(O)c2ccccc2oc1=O
Ki (Cytochrome P450 2C9): 500 nM
Ki [1]: 500 nM
